Experiments:
[1] = biological target: KAT7+JADE1+EAF6+ING5 4 protein complex (Homo sapiens (Human), UniProt O95251); test: KAT7 JADE1 assay (SAMDI-MS acetylation of H3 1-21 peptide); format: biochemical; settings: Morrison equation fit; replicate number in parentheses; read-out: KAT7 JADE1 Ki (nM) (replicate number)
KAT6A Full length enzyme = KAT6A Full length enzyme (Homo sapiens (Human), UniProt Q92794); test: KAT6A assay (SAMDI-MS acetylation of H3 1-21 peptide); format: biochemical; settings: Morrison equation fit; replicate number in parentheses; read-out: KAT6A Ki (nM) (replicate number)
Sequence of KAT6A Full length enzyme (Q92794 other isoform, or with tags, fused parts or gaps): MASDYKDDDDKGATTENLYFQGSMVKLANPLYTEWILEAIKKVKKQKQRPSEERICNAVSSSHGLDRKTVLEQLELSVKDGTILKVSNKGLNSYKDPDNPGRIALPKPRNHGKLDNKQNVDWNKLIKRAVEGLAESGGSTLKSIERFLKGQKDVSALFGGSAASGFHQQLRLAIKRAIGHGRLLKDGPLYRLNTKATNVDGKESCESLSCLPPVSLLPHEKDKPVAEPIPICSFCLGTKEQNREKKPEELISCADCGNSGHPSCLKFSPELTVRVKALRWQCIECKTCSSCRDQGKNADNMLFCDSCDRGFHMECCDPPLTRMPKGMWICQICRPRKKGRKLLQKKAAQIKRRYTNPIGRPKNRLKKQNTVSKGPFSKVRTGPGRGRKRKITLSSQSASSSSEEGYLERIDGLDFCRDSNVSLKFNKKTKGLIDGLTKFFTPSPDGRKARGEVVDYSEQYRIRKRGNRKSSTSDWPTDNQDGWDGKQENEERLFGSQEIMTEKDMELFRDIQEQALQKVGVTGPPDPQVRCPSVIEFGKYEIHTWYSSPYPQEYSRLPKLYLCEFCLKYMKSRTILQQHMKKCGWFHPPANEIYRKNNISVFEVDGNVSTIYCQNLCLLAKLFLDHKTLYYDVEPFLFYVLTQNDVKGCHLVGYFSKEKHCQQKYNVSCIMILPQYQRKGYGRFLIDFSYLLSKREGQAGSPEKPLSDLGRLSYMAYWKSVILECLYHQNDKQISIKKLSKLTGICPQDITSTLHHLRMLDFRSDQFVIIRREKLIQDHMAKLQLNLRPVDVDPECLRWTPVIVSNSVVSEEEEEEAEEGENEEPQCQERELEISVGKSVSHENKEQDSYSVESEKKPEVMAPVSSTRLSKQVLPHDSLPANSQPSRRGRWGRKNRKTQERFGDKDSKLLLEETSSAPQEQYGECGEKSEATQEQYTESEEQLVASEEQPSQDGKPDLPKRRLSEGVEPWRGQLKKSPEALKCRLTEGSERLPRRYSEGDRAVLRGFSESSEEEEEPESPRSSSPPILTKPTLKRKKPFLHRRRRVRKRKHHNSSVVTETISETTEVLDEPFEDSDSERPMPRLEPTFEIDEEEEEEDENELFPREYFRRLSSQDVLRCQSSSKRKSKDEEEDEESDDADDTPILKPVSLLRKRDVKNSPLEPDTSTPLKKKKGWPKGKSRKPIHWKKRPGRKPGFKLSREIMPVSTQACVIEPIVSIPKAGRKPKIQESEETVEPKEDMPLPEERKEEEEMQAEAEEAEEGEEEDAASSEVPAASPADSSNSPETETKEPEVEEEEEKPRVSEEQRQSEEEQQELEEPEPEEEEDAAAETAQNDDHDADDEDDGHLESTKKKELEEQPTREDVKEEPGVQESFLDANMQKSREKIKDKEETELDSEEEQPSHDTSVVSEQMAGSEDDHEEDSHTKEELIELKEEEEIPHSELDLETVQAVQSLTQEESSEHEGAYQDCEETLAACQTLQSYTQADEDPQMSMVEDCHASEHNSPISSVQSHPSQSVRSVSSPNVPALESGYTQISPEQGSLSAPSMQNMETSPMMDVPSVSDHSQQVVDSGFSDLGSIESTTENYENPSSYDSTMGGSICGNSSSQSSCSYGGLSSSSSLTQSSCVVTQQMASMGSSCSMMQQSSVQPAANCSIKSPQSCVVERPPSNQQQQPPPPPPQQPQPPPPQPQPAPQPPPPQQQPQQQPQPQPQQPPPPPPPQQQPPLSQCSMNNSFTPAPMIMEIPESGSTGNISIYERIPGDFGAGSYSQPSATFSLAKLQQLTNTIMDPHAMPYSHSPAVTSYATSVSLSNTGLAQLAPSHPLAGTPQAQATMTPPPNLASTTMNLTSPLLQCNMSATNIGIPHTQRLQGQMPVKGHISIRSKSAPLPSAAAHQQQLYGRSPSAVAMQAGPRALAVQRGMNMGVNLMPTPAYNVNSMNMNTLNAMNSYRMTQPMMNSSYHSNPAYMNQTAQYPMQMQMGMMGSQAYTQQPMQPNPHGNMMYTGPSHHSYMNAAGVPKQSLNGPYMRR

SMILES | Ki [1] | Ki (KAT6A Full length enzyme)
COc1cc2c(NS(=O)(=O)c3c(OC)cccc3OC)noc2cc1Nc1[nH]nc(C)c1C#N [Example 45, N-{6-[(4-cyano-3-methyl-1H-pyrazol-5-yl)amino]-5-methoxy-1,2-benzoxazol-3-yl}-2,6-dimethoxybenzene-1-sulfonamide] | 804 nM | 2.3 nM
COc1cc2c(NS(=O)(=O)c3c(OC)cccc3OC)noc2cc1Nc1[nH]nc2c1CNC2 [Example 49, 2,6-dimethoxy-N-{5-methoxy-6-[(2,4,5,6-tetrahydropyrrolo[3,4-c]pyrazol-3-yl)amino]-1,2-benzoxazol-3-yl}benzene-1-sulfonamide] | > 2340 nM | 4 nM
COc1cc2c(NS(=O)(=O)c3c(OC)cccc3OC)noc2cc1Nc1cc(C(C)C)nn1C [Example 51, 2,6-dimethoxy-N-(5-methoxy-6-{[1-methyl-3-(propan-2-yl)-1H-pyrazol-5-yl]amino}-1,2-benzoxazol-3-yl)benzene-1-sulfonamide] | > 4990 nM | > 377 nM
COc1cc2c(NS(=O)(=O)c3c(OC)cccc3OC)noc2cc1Nc1cc(C)nn1C(C)C [Example 52, 2,6-dimethoxy-N-(5-methoxy-6-{[3-methyl-1-(propan-2-yl)-1H-pyrazol-5-yl]amino}-1,2-benzoxazol-3-yl)benzene-1-sulfonamide] | > 12500 nM | 73.5 nM
COc1cc2c(NS(=O)(=O)c3c(OC)cccc3OC)noc2cc1Nc1ccn(C(C)C)n1 [Example 53, 2,6-dimethoxy-N-(5-methoxy-6-{[1-(propan-2-yl)-1H-pyrazol-3-yl]amino}-1,2-benzoxazol-3-yl)benzene-1-sulfonamide] | 441 nM | 19.8 nM
COc1cc2c(NS(=O)(=O)c3c(OC)cccc3OC)noc2cc1Nc1cc(C(=O)O)n[nH]1 [Example 54, 5-({3-[(2,6-dimethoxybenzene-1-sulfonyl)amino]-5-methoxy-1,2-benzoxazol-6-yl}amino)-1H-pyrazole-3-carboxylic acid] | > 2340 nM | 2 nM
COc1cc2c(NS(=O)(=O)c3c(OC)cccc3OC)noc2cc1Nc1[nH]nc(C)c1C(N)=O [Example 57, 5-({3-[(2,6-dimethoxybenzene-1-sulfonyl)amino]-5-methoxy-1,2-benzoxazol-6-yl}amino)-3-methyl-1H-pyrazole-4-carboxamide] | > 2340 nM | 6.2 nM
COc1cc2c(NS(=O)(=O)c3c(OC)cccc3OC)noc2cc1Nc1c(C(N)=O)c(C)nn1C [Example 58, 5-({3-[(2,6-dimethoxybenzene-1-sulfonyl)amino]-5-methoxy-1,2-benzoxazol-6-yl}amino)-1,3-dimethyl-1H-pyrazole-4-carboxamide] | > 12500 nM | 5.7 nM
COCc1cc(Nc2cc3onc(NS(=O)(=O)c4c(OC)cccc4OC)c3cc2OC)n(C)n1 [Example 60, 2,6-dimethoxy-N-(5-methoxy-6-{[3-(methoxymethyl)-1-methyl-1H-pyrazol-5-yl]amino}-1,2-benzoxazol-3-yl)benzene-1-sulfonamide] | > 12500 nM | > 377 nM
COc1cc2c(NS(=O)(=O)c3c(OC)cccc3OC)noc2cc1Nc1nc[nH]n1 [Example 61, 2,6-dimethoxy-N-{5-methoxy-6-[(1H-1,2,4-triazol-3-yl)amino]-1,2-benzoxazol-3-yl}benzene-1-sulfonamide] | 54.7 nM | 0.2 nM
COCc1cc(Nc2cc3onc(NS(=O)(=O)c4c(OC)cccc4OC)c3cc2OC)[nH]n1 [Example 91, 2,6-dimethoxy-N-(5-methoxy-6-{[3-(methoxymethyl)-1H-pyrazol-5-yl]amino}-1,2-benzoxazol-3-yl)benzene-1-sulfonamide] | 802 nM | 2.3 nM
COc1cc2c(NS(=O)(=O)c3c(OC)cccc3OC)noc2cc1Nc1cc(C(F)(F)F)n[nH]1 [Example 93, 2,6-dimethoxy-N-(5-methoxy-6-{[3-(trifluoromethyl)-1H-pyrazol-5-yl]amino}-1,2-benzoxazol-3-yl)benzene-1-sulfonamide] | 729 nM | 31.2 nM
CCOc1cc(C)c(F)cc1S(=O)(=O)Nc1noc2cc(Nc3n[nH]cc3F)c(OC)cc12 [Example 139, 2-Ethoxy-5-fluoro-N-{6-[(4-fluoro-1 H-pyrazol-3-yl)amino]-5-methoxy-1,2-benzoxazol-3-yl}-4-methylbenzene-1-sulfonamide] | 128 nM | 0.1 nM
COc1cc2c(NS(=O)(=O)c3c(OC)cc(C4CN(C)CCC4(F)F)cc3OC)noc2cc1Nc1cc(C2CC2)[nH]n1 (stereo not drawn) [Example 177, N-{6-[(5-cyclopropyl-1 H-pyrazol-3-yl)amino]-5-methoxy-1,2-benzoxazol-3-yl}-4-[4,4-difluoro-1-(^2H3)methylpiperidin-3-yl]-2,6-dimethoxybenzene-1-sulfonamide] | 0.2 nM | 0.1 nM
COc1cc2c(NS(=O)(=O)c3c(OC)cc(C4C[C@H](F)CN4C)cc3OC)noc2cc1Nc1cc(C2CC2)n[nH]1 (stereo partly drawn) [Example 181, N-{6-[(3-cyclopropyl-1 H-pyrazol-5-yl)amino]-5-methoxy-1,2-benzoxazol-3-yl}-4-[(4S)-4-fluoro-1-methylpyrrolidin-2-yl]-2,6-dimethoxybenzene-1-sulfonamide] | 6.2 nM | 2 nM
COc1cc2c(NS(=O)(=O)c3c(OC)cc(C4C[C@H](C)CN4C)cc3OC)noc2cc1Nc1cc(C2CC2)n[nH]1 (stereo partly drawn) [Example 182, N-{6-[(3-cyclopropyl-1H-pyrazol-5-yl)amino]-5-methoxy-1,2-benzoxazol-3-yl}-4-[(4S)-1,4-dimethylpyrrolidin-2-yl]-2,6-dimethoxybenzene-1-sulfonamide] | 6.4 nM | 0.8 nM
COc1cc2c(NS(=O)(=O)c3c(OC)cc([C@@H]4CCCN4C)cc3OC)noc2cc1Nc1cc(C2CC2)n[nH]1 [Example 189] | 20.8 nM | 3.7 nM
COc1cc2c(NS(=O)(=O)c3c(OC)cc(C4CC(F)CCN4C)cc3OC)noc2cc1Nc1cc(C2CC2)[nH]n1 (stereo not drawn) [Example 192, N-{6-[(5-cyclopropyl-1 H-pyrazol-3-yl)amino]-5-methoxy-1,2-benzoxazol-3-yl}-4-trans(4-fluoro-1-methylpiperidin-2-yl)-2,6-dimethoxybenzene-1-sulfonamide] | 22.2 nM | 2.4 nM
COc1cc2c(NS(=O)(=O)c3c(OC)cc(C4CC(F)CCN4C)cc3OC)noc2cc1Nc1cc(C2CC2)[nH]n1 (stereo not drawn) [Example 193, N-{6-[(5-cyclopropyl-1 H-pyrazol-3-yl)amino]-5-methoxy-1,2-benzoxazol-3-yl}-4-trans(4-fluoro-1-methylpiperidin-2-yl)-2,6-dimethoxybenzene-1-sulfonamide] | 12 nM | 1.4 nM
COc1cc2c(NS(=O)(=O)c3c(OC)cc(CN4CCC(OC)CC4)cc3OC)noc2cc1Nc1cc(C2CC2)n[nH]1 [Example 194, N-{6-[(3-cyclopropyl-1 H-pyrazol-5-yl)amino]-5-methoxy-1,2-benzoxazol-3-yl}-2,6-dimethoxy-4-[(4-methoxypiperidin-1-yl)methyl]benzene-1-sulfonamide] | 6.3 nM | 1.7 nM
COc1cc2c(NS(=O)(=O)c3c(OC)cc(CN4CCC[C@H](C)C4)cc3OC)noc2cc1Nc1cc(C2CC2)n[nH]1 [Example 195, N-{6-[(3-cyclopropyl-1H-pyrazol-5-yl)amino]-5-methoxy-1,2-benzoxazol-3-yl}-2,6-dimethoxy-4-{[(3S)-3-methylpiperidin-1-yl]methyl}benzene-1-sulfonamide] | 18.9 nM | 2.5 nM
